Measured values: paper PMC10387993, “New pyrimidine-N-β-D-glucosides: synthesis, biological evaluation, and molecular docking investigations” (Turkish Journal of Chemistry, 2023)
Converted amounts (≈) assume the structure as drawn. Read-outs that look alike come from different tables or passages of the source.

Columns and labels:
Type in all cases: cell-based
C6 (Rat brain glioma) = assay: cells; conditions: Rattus norvegicus; for LC50 (concentration giving 50% net cell loss relative to time zero): read-out: LC50; for GI50 / IC50 / IC (total growth inhibition): C6, MTT; for IC50: read-out: IC50; for IC (total growth inhibition): read-out: TGI
In short: (§1)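 In this MTT proliferation screen, formazan formed over 4 h was read at 560 nm against a 690 nm reference. Each line was tested at least three times, and the IC50 was taken as the concentration inhibiting half of the cells.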

Hep3B = assay: cells; conditions: Homo sapiens; for GI50 / IC50 / IC (total growth inhibition): MTT; for IC50: read-out: IC50; for IC (total growth inhibition): read-out: TGI; for LC50 (concentration causing 50% net cell loss relative to time zero): read-out: LC50
In short: as §1

in vitro = conditions: human, LC50
In short: as §1

normal FL cells = assay: cells; conditions: FL normal cells, MTT; for IC50: read-out: IC50; for IC (total growth inhibition): read-out: TGI
In short: as §1

[1] = LDH cytotoxic activity assay, HeLa; conditions: human, HeLa cells
In short: (§2)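 Harvest ~80%-confluent cells with trypsin-EDTA, seed ~5 × 10^3 per well in DMEM or RPMI 1640 containing 10% FBS, then add compound at 25–100 μg/mL (four levels) for 24 h at 37 °C. Finish by reading LDH activity at 492–630 nm.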

[2] = LDH cytotoxic activity assay, HT29; conditions: human, HT29 cells; for cytotoxicity at 24 h, 25 μg/mL: HT29, 25 μg/mL; for cytotoxicity at 24 h, 50 μg/mL: HT29, 50 μg/mL; for cytotoxicity at 24 h, 75 μg/mL: HT29, 75 μg/mL; for cytotoxicity at 24 h, 100 μg/mL: HT29, 100 μg/mL
In short: as §2

[3] = system: A. actinomycetemcomitans ATCC 33384; assay: Microdilution MIC assay; conditions: Aggregatibacter actinomycetemcomitans, ATCC33384; A. actinomycetemcomitans ATCC 33384, 24 h at 35 °C
Description: (§3) MIC values of the compounds against bacterial strains were determined on the basis of a microwell dilution method. […] […]. Growth of microorganisms was determined visually after incubation for 24 h at 35 °C. The lowest concentration at which there was no visible growth (turbidity) was taken as the MIC.

E. coli ATCC 25922 = assay: Microdilution MIC assay; conditions: Escherichia coli, ATCC25922; E. coli ATCC 25922, 24 h at 35 °C
Description: as §3

E. coli ESBL ATCC 35218 = assay: Microdilution MIC assay; conditions: Escherichia coli, ATCC35218; E. coli ESBL ATCC 35218, 24 h at 35 °C
Description: as §3

E. faecalis ATCC 29212 = assay: Microdilution MIC assay; conditions: Enterococcus faecalis, ATCC29212, 24 h, E. faecalis ATCC 29212, 24 h at 35 °C; read-out: MIC
Description: as §3

[4] = system: E. faecalis VRE ATCC 19433; assay: Microdilution MIC assay; conditions: Enterococcus faecalis; E. faecalis VRE ATCC 19433, 24 h at 35 °C
Description: as §3

[5] = system: P. aeruginosa AGME ATCC 27853; assay: Microdilution MIC assay; conditions: Pseudomonas aeruginosa, ATCC27853; P. aeruginosa AGME ATCC 27853, 24 h at 35 °C
Description: as §3

S. aureus ATCC 25923 = assay: Microdilution MIC assay; conditions: Staphylococcus aureus, ATCC25923, 24 h, S. aureus ATCC 25923, 24 h at 35 °C; read-out: MIC
Description: as §3

[6] = system: S. aureus MRSA ATCC 46300; assay: Microdilution MIC assay; conditions: Staphylococcus aureus; S. aureus MRSA ATCC 46300, 24 h at 35 °C; read-out: MIC
Description: as §3

[7] = system: S. aureus MSSA ATCC 29213; assay: Microdilution MIC assay; conditions: S. aureus MSSA ATCC 29213, 24 h at 35 °C
Description: as §3

S. gordonii NCTC 7870 = assay: Microdilution MIC assay; conditions: Streptococcus gordonii, NCTC7870; S. gordonii NCTC 7870, 24 h at 35 °C
Description: as §3

S. mutans ATCC 35668 = assay: Microdilution MIC assay; conditions: S. mutans ATCC 35668, 24 h at 35 °C
Description: as §3

[8] = Staphylococcus aureus, 24 h, read-out: MIC
[9] = Streptococcus mutans, ATCC35668, 24 h, read-out: MIC

GI50 (C6 (Rat brain glioma)) [µg/mL]	IC50 (C6 (Rat brain glioma)) [µg/mL]	GI50 (Hep3B) [µg/mL]	IC50 (Hep3B) [µg/mL]	Compound	LC50 (concentration giving 50% net cell loss relative to time zero) (C6 (Rat brain glioma)) [µg/mL]	IC (total growth inhibition) (C6 (Rat brain glioma)) [µg/mL]	IC (total growth inhibition) (Hep3B) [µg/mL]	LC50 (concentration causing 50% net cell loss relative to time zero) (Hep3B) [µg/mL]	LC50 (concentration causing 50% net cell loss) (in vitro) [µg/mL]	GI50 (normal FL cells) [µg/mL]	IC50 (normal FL cells) [µg/mL]	IC (total growth inhibition) (normal FL cells) [µg/mL]	cytotoxicity at 24 h, 25 μg/mL [1] [%]	cytotoxicity at 24 h, 50 μg/mL [1] [%]	cytotoxicity at 24 h, 75 μg/mL [1] [%]	cytotoxicity at 24 h, 100 μg/mL [1] [%]	cytotoxicity at 24 h, 25 μg/mL [2] [%]	cytotoxicity at 24 h, 50 μg/mL [2] [%]	cytotoxicity at 24 h, 75 μg/mL [2] [%]	cytotoxicity at 24 h, 100 μg/mL [2] [%]	also measured
> 500	> 500	4.07 (≈ 9.59 µM)	> 500	Cc1cccc(-c2cc(-c3ccncc3)nc(N[C@@H]3O[C@H](CO)[C@@H](O)[C@H](O)[C@H]3O)n2)c1 [Compound 6, N-[4-(3-methylphenyl)-6-pyridin-4-ylpyrimidin-2-yl]-β-D-glucopyranosylamine]	> 500	> 500	> 500	> 500	> 500	8.04 (≈ 18.9 µM)	> 500	> 500	14.3	29.2	44.5	47.8	24.8	34.5	68.9	85.6	MIC [3]: 500 µg/mL (≈ 1180 µM); MIC (E. coli ATCC 25922): > 1000 µg/mL; MIC (E. coli ESBL ATCC 35218): > 1000 µg/mL; MIC (E. faecalis ATCC 29212): 1000 µg/mL (≈ 2360 µM); MIC [4]: 1000 µg/mL (≈ 2360 µM); MIC [5]: > 1000 µg/mL; MIC (S. aureus ATCC 25923): 500 µg/mL (≈ 1180 µM); MIC [6]: 250 µg/mL (≈ 589 µM); MIC [7]: 125 µg/mL (≈ 294 µM); MIC [7, 8]: 62.5 to 125 µg/mL (≈ 147 to 294 µM); MIC (S. gordonii NCTC 7870): 250 µg/mL (≈ 589 µM); MIC (S. mutans ATCC 35668; [9]): 500 µg/mL (≈ 1180 µM)
4.37 (≈ 10.3 µM)	33.5 (≈ 78.9 µM)	3.83 (≈ 9.02 µM)	> 500	Cc1ccccc1-c1cc(-c2ccncc2)nc(N[C@@H]2O[C@H](CO)[C@@H](O)[C@H](O)[C@H]2O)n1 [Compound 3, N-[4-(2-methylphenyl)-6-pyridin-4-ylpyrimidin-2-yl]-β-D-glucopyranosylamine]	252 (≈ 594 µM)	17.4	> 500	> 500	> 500	6.56 (≈ 15.5 µM)	> 500	> 500	16.3	33.4	40.6	56.9	33.1	49.9	71.1	98.7	MIC [3]: 500 µg/mL (≈ 1180 µM); MIC (E. coli ATCC 25922): > 1000 µg/mL; MIC (E. coli ESBL ATCC 35218): > 1000 µg/mL; MIC (E. faecalis ATCC 29212): > 1000 µg/mL; MIC [4]: > 1000 µg/mL; MIC [5]: > 1000 µg/mL; MIC (S. aureus ATCC 25923): 500 µg/mL (≈ 1180 µM); MIC [6]: 1000 µg/mL (≈ 2360 µM); MIC [7, 8]: 1000 µg/mL (≈ 2360 µM); MIC (S. gordonii NCTC 7870): 1000 µg/mL (≈ 2360 µM); MIC (S. mutans ATCC 35668; [9]): 500 µg/mL (≈ 1180 µM)
2.03 (≈ 3.43 µM)	13 (≈ 21.9 µM)	4.88 (≈ 8.23 µM)	> 500	CC(=O)OC[C@H]1O[C@@H](Nc2nc(-c3ccncc3)cc(-c3ccccc3C)n2)[C@H](OC(C)=O)[C@@H](OC(C)=O)[C@@H]1OC(C)=O [Compound 12, 2,3,4,6-tetra-O-acetyl-N-[4-(2-methylphenyl)-6-pyridin-4-ylpyrimidin-2-yl]-β-D-glucopyranosylamine]	139 (≈ 234 µM)	6.49	> 500	> 500	> 500	3.68 (≈ 6.21 µM)	> 500	> 500	18.8	30.8	42.6	49.6	30.7	41.9	62.6	77.6	MIC [3]: > 1000 µg/mL; MIC (E. coli ATCC 25922): > 1000 µg/mL; MIC (E. coli ESBL ATCC 35218): > 1000 µg/mL; MIC (E. faecalis ATCC 29212): 250 µg/mL (≈ 422 µM); MIC [4]: 1000 µg/mL (≈ 1690 µM); MIC [5]: > 1000 µg/mL; MIC (S. aureus ATCC 25923): > 1000 µg/mL; MIC [6]: 500 µg/mL (≈ 844 µM); MIC [7, 8]: 1000 µg/mL (≈ 1690 µM); MIC (S. gordonii NCTC 7870): > 1000 µg/mL; MIC (S. mutans ATCC 35668): 62.5 µg/mL (≈ 105 µM); MIC (S. mutans ATCC 35668; [9]): 62.5 to 125 µg/mL (≈ 105 to 211 µM)
